In patent US20100029704A1, “SALT OF NONSTEROIDAL ANTI-INFLAMMATORY DRUG AND ORGANIC AMINE COMPOUND AND USE THEREOF” (priority 2007, published 2010):
Where a name gives a salt, the structure may show the parent alone.

Columns and labels:
[1] = Solubility of NSAID-eperisone salt and NSAID free acid in diethyl sebacate; format: physicochemical; settings: for dissolution in diethyl sebacate (50 g): 5 g NSAID free acid or ionic liquid corresponding to 5 g NSAID, shaken at room temperature for 30 min; for amount (g) of diethyl sebacate necessary for dissolving NSAID (1 g): NSAID free acid; for amount (g) of diethyl sebacate necessary for dissolving NSAID (1 g) / amount (g) of diethyl sebacate necessary for dissolving an eperisone salt corresponding to NSAID (1 g): room temperature
Description: The solubility of an eperisone salt of NSAID, and a free acid of NSAID in diethyl sebacate widely used for external preparations was measured. […] The solutions were stood still and, when an undissolved matter was found, diethyl sebacate was further added, and the mixture was shaken.

[2] = Skin permeability test using isolated rat abdominal skin (Franz-type diffusion cell); settings: accumulated up to 6 hours, 2.5 wt % as NSAID free acid in diethyl sebacate/propylene glycol, 32° C.
Description: An equimolar salt of NSAID and organic amine was dissolved in a mixture of diethyl sebacate and propylene glycol to give a solution preparation. For comparison, a solution preparation (control) of NSAID was prepared in the same manner.
As a receptor solution, saline-ethanol solution (9:1, 8 ml) was placed in an upright Franz-type diffusion cell (effective diffusion area: 1 cm^2), and the solution was stirred and maintained at 32° C. An isolated abdominal shaved skin of 6-week-old Wistar rat was applied to the Franz cell, and the prepared solution preparation (0.15 ml) was applied to the skin. A part (300 μL) of the receptor solution was taken at predetermined time intervals, the drug concentration in the receptor solution was measured by high performance liquid chromatography, and the drug permeation amount per 1 cm^2 rat skin was calculated.
Unless otherwise indicated, in the following Experimental Examples, the drug concentration of the solution preparation is 2.5 wt % as NSAID free acid, and the skin permeation amount is an accumulated amount (μg/cm^2) up to 6 hours.

[3] = Form of the salt on standing / long-term preservation; format: physicochemical
Description: First, a salt was produced using equimolar amounts of a carboxylic acid NSAID and organic amine. […] The obtained ionic liquid or crystals and the like were left standing, confirmed to be stable, and then the forms thereof were observed. This has clarified that the salt produced by the combination of NSAID and an organic amine compound may be a liquid (viscous liquid) or crystal at ambient temperature (25° C.).

[4] = room temperature; crystals were indomethacin:lidocain 2:1; cited from earlier work

Question: Which results are given for `CC(C(=O)O)c1ccc(CC2CCCC2=O)cc1` (stereo not shown) [loxoprofen]?
Answer: dissolution in diethyl sebacate (50 g) [1]: not dissolved; amount (g) of diethyl sebacate necessary for dissolving NSAID (1 g) [1]: not less than 100 g; loxoprofen permeation amount ([2]; listed as loxoprofen free acid): 49.5 μg/cm^2

Question: With `CC(C(=O)O)c1ccc(CC2CCCC2=O)cc1.CCCCN1CCCCC1C(=O)Nc1c(C)cccc1C` (stereo not shown) [loxoprofen-bupivacaine salt] as the compound, how does the “form/note: crystallization during long-term preservation” value [3] read?
Answer: The value was “partially”.

Question: Which indomethacin permeation amount [2] does the source give for `CC(O)CN(CC(C)O)CC(C)O.COc1ccc2c(c1)c(CC(=O)O)c(C)n2C(=O)c1ccc(Cl)cc1` [indomethacin-TIPA salt] here?
Answer: The indomethacin permeation amount was 15.8 μg/cm^2.

Question: Which “stability of the ionic liquid when stood still” value [4] does the source give for `CCN(CC)CC(=O)Nc1c(C)cccc1C.COc1ccc2c(c1)c(CC(=O)O)c(C)n2C(=O)c1ccc(Cl)cc1` here?
Answer: Its value is “crystals were gradually precipitated”.

Question: For `CC(C(=O)O)c1ccc(-c2ccccc2)c(F)c1.COc1cccc(C2(O)CCCCC2CN(C)C)c1` (stereo not shown) [flurbiprofen-tramadol salt], which flurbiprofen permeation amount [2] is on record?
Answer: The flurbiprofen permeation amount was 78.1 μg/cm^2.

Question: With `CCc1ccc(C(=O)C(C)CN2CCCCC2)cc1.CCc1cccc2c3c([nH]c12)C(CC)(CC(=O)O)OCC3` (stereo not shown) [etodolac-eperisone salt] as the compound, how does the “amount (g) of diethyl sebacate necessary for dissolving an eperisone salt corresponding to NSAID (1 g)” value (shortened to “amount (g) … to NSAID (1 g)”) [1] read?
Answer: The value was “not more than 10 g”.

Question: What about the etodolac permeation amount [2] of the same compound?
Answer: Its etodolac permeation amount is 20.5 μg/cm^2.

Question: With loxoprofen-DIPA salt as the compound, how does the loxoprofen permeation amount [2] read?
Answer: The loxoprofen permeation amount was 68.6 μg/cm^2.

Question: For `CC(C(=O)O)c1cccc(C(=O)c2ccccc2)c1` (stereo not shown) [ketoprofen, reference compound], which Ketoprofen permeation amount [2] is on record?
Answer: Its Ketoprofen permeation amount is 36.1 μg/cm^2.

Question: Which indomethacin permeation amount [2] does the source give for `COc1ccc2c(c1)c(CC(=O)O)c(C)n2C(=O)c1ccc(Cl)cc1.COc1cccc(C2(O)CCCCC2CN(C)C)c1` [indomethacin-tramadol salt] here?
Answer: The indomethacin permeation amount was 9.8 μg/cm^2.

Question: With `CC(C(=O)O)c1ccc(-c2ccccc2)c(F)c1.Cc1ccc(C(=O)C(C)CN2CCCCC2)cc1` (stereo not shown) [flurbiprofen-tolperisone salt] as the compound, how does the flurbiprofen permeation amount [2] read?
Answer: Its flurbiprofen permeation amount is 46.3 μg/cm^2.

Question: Which “amount (g) … to NSAID (1 g)” value [1] does the source give for `CC(C(=O)O)c1ccc(-c2ccccc2)c(F)c1.CCc1ccc(C(=O)C(C)CN2CCCCC2)cc1` (stereo not shown) [flurbiprofen-eperisone salt] here?
Answer: Its value is “not more than 10 g”.

Question: For `CCN(CC)CC(=O)Nc1c(C)cccc1C.O=C(O)Cc1ccccc1Nc1c(Cl)cccc1Cl` [diclofenac-lidocain salt], which “form/note: crystallization during long-term preservation” value [3] is on record?
Answer: The value was “partial”.

Question: With `Cc1ccc(C(=O)C(C)CN2CCCCC2)cc1.O=C(O)Cc1ccccc1Nc1c(Cl)cccc1Cl` [diclofenac-tolperisone salt] as the compound, how does the diclofenac permeation amount [2] read?
Answer: Its diclofenac permeation amount is 20.3 μg/cm^2.

Question: With `COc1ccc2c(c1)c(CC(=O)O)c(C)n2C(=O)c1ccc(Cl)cc1.Cc1ccc(C(=O)C(C)CN2CCCCC2)cc1` [indomethacin-tolperisone salt] as the compound, how does the indomethacin permeation amount [2] read?
Answer: The indomethacin permeation amount was 14.7 μg/cm^2.

Question: For `CC(C(=O)O)c1ccc(-c2ccccc2)c(F)c1.CCN(CC)CC(=O)Nc1c(C)cccc1C` (stereo not shown) [flurbiprofen-lidocain salt], which flurbiprofen permeation amount [2] is on record?
Answer: Its flurbiprofen permeation amount is 91.0 μg/cm^2.

Question: For `CC(C(=O)O)c1ccc(-c2ccccc2)c(F)c1.CC(O)CN(CC(C)O)CC(C)O` (stereo not shown) [flurbiprofen-TIPA salt], which flurbiprofen permeation amount [2] is on record?
Answer: Its flurbiprofen permeation amount is 91.8 μg/cm^2.

Question: With `CCc1cccc2c3c([nH]c12)C(CC)(CC(=O)O)OCC3` (stereo not shown) [etodolac, reference compound] as the compound, how does the “amount (g) of diethyl sebacate necessary for dissolving NSAID (1 g)” value (from here on “amount (g) … for dissolving NSAID (1 g)”) [1] read?
Answer: The value was “not more than 10 g”.

Question: What about the etodolac permeation amount [2] of the same compound?
Answer: The etodolac permeation amount was 10.4 μg/cm^2.

Question: For `O=C(O)Cc1ccccc1Nc1c(Cl)cccc1Cl` [diclofenac], which “dissolution in diethyl sebacate (50 g)” value [1] is on record?
Answer: The value was “not dissolved”.

Question: And the “amount (g) … for dissolving NSAID (1 g)” value [1]?
Answer: Its value is “not less than 100 g”.

Question: What about the diclofenac permeation amount [2] of the same compound?
Answer: The diclofenac permeation amount was 8.8 μg/cm^2.

Question: For `CCc1cccc2c3c([nH]c12)C(CC)(CC(=O)O)OCC3.Cc1ccc(C(=O)C(C)CN2CCCCC2)cc1` (stereo not shown) [etodolac-tolperisone salt], which etodolac permeation amount [2] is on record?
Answer: The etodolac permeation amount was 22.3 μg/cm^2.

Question: With `COc1ccc2c(c1)c(CC(=O)O)c(C)n2C(=O)c1ccc(Cl)cc1` [indomethacin] as the compound, how does the “dissolution in diethyl sebacate (50 g)” value [1] read?
Answer: Its value is “not dissolved”.

Question: What about the “amount (g) … for dissolving NSAID (1 g)” value [1] of the same compound?
Answer: The value was “not less than 100 g”.

Question: What about the indomethacin permeation amount [2] of the same compound?
Answer: The indomethacin permeation amount was 6.9 μg/cm^2.

Question: With `CC(C(=O)O)c1ccc(CC2CCCC2=O)cc1.Cc1ccc(C(=O)C(C)CN2CCCCC2)cc1` (stereo not shown) [loxoprofen-tolperisone salt] as the compound, how does the loxoprofen permeation amount [2] read?
Answer: The loxoprofen permeation amount was 82.3 μg/cm^2.

Question: Which “form/note: crystallization during long-term preservation” value [3] does the source give for `COc1cccc(C2(O)CCCCC2CN(C)C)c1.O=C(O)Cc1ccccc1Nc1c(Cl)cccc1Cl` (stereo not shown) [diclofenac-tramadol salt] here?
Answer: The value was “crystallized”.

Question: Which loxoprofen permeation amount [2] does the source give for `CC(C(=O)O)c1ccc(CC2CCCC2=O)cc1.CCN(CC)CC(=O)Nc1c(C)cccc1C` (stereo not shown) [loxoprofen-lidocain salt] here?
Answer: Its loxoprofen permeation amount is 103.4 μg/cm^2.

Question: Which loxoprofen permeation amount ([2]; sodium salt) does the source give for `CC(C(=O)O)c1ccc(CC2CCCC2=O)cc1` (stereo not shown) [loxoprofen sodium salt, reference compound] here?
Answer: Its loxoprofen permeation amount is 27.1 μg/cm^2.

Question: With `CC(C(=O)O)c1ccc(-c2ccccc2)c(F)c1` (stereo not shown) [flurbiprofen, reference compound] as the compound, how does the “amount (g) … for dissolving NSAID (1 g)” value [1] read?
Answer: Its value is “not more than 10 g”.

Question: And the flurbiprofen permeation amount [2]?
Answer: The flurbiprofen permeation amount was 20.2 μg/cm^2.

Question: Which “amount (g) … to NSAID (1 g)” value [1] does the source give for `CC(C(=O)O)c1ccc(CC2CCCC2=O)cc1.CCc1ccc(C(=O)C(C)CN2CCCCC2)cc1` (stereo not shown) [loxoprofen-eperisone salt] here?
Answer: The value was “not more than 10 g”.

Question: And the loxoprofen permeation amount [2]?
Answer: Its loxoprofen permeation amount is 91.2 μg/cm^2.

Question: For `CCc1ccc(C(=O)C(C)CN2CCCCC2)cc1.COc1ccc2c(c1)c(CC(=O)O)c(C)n2C(=O)c1ccc(Cl)cc1` [indomethacin-eperisone salt], which “amount (g) … to NSAID (1 g)” value [1] is on record?
Answer: The value was “not more than 10 g”.
